According to patent publication US5635161A, “Aerosol drug formulations containing vegetable oils” (priority 1995, dated 1997):
“Also recorded” adds a separate entry of the source. Values belong to the molecule of their own block, whether it stands above or below them.

Columns and labels:
[1] = Bioavailability / plasma pharmacokinetics after inhalation (MDI) versus i.v. in tracheostomized dogs; conditions: dog, in vivo
[2] = as above; assay type: in vivo; conditions: dog
Description: All quantitative analyses for 5-LO inhibitor #1 formulations were performed by high pressure liquid chromatography (HPLC). The mobile phase composition was 30% v/v tetrahydrofuran in water with 0.128% w/v tetramethylammonium perchlorate and 0.075% v/v trifluoroacetic acid. A Regis Little Champ™ C-18, 4.6×50 mm column was used. The mobile phase flow rate was maintained at 1.0 milliliters/minute (mL/min). Detection wavelength was set at 282 nanometers (nm) and typical injection volumes were between 25 to 50 microliters (μL). Under these conditions, the standard curve for the parent drug was linear between the range of 3 to 75 micrograms/milliliter (μg/mL) (r^2 ≥0.990), with a run time of about 8 minutes.
Using a test preparation containing 25 mg/mL 5-LO inhibitor #1 and 2.5 mg/mL olive oil in HFC-134a propellant, pulmonary absorption and in vivo distribution (i.e. bioavailibility factors) were assessed in four tracheostomized dogs (Marshall Farms, N.Y.) weighing about 10 kilograms (kg) each. Four sprays, delivering 1.25 mg of active 5-LO inhibitor #1/spray, were delivered to the trachea of each dog, resulting in a total drug dose of about 0.5 mg/kg. Blood samples were collected at 0.25, 0.5, 1, 2, 3.5, 5, 7, 9, 12 and 24 hours after dosing and the plasma assayed for drug concentration using the HPLC method described in Example 1A above.

[3] = Visual dispersion quality (physical stability) of MDI formulations in HFA-134a after 24 hours; assay type: physicochemical; set-up: key: Poor: Phase separation; top phase clear, bottom phase containing solids; Fair: Partial phase separation; cloudiness in the top phase; Good: Grainy appearance; no phase separation; Clear solution
Description: MDI formulations for performance testing were prepared in the following manner: For each test formulation, about 5 mL (or 7.4 grams) of glass beads were placed into a suitable glass aerosol container (vial), along with 100 mg to 250 mg drug and a vegetable oil in the amounts needed to produce the desired final concentrations. All vegetable oils used in the following examples were purchased from Sigma® Chemical Company (St. Louis, Mo., 63178). The vials were crimped shut with valves having delivery values (volumes per spray) of 50 μL, and then charged with 10 mL of HFA-134a propellant. The filled vials were then shaken for 24 hours at about 50 cycles/minute to mill and disperse the drug. […] The formulations were then used in the in vitro or in vivo studys described below.
A determination of the effect of vegetable oils on the physical stability of several MDI formulations prepared with HFA-134a was conducted as follows: A vegetable oil was combined either with (1) leuprolide acetate (Table 2a) or (2) 5-LO inhibitor #1 (Table 2b) in the amounts indicated and placed in appropriate transparent aerosol containers (vials). […] The dispersion quality in each preparation was evaluated visually after 24 hours using the following criteria: […]

[4] = inhaled or intranasal, 0.5 mg/kg, Plasma concentration (5-LO Inhibitor Levels)
[5] = iv, 0.5 mg/kg, Plasma concentration (5-LO Inhibitor Levels)
[6] = in vivo, inhaled or intranasal, 0.5 mg/kg
[7] = in vivo, inhaled or intranasal, 0.5 mg/kg, Plasma concentration (5-LO Inhibitor Levels)

duration of drug absorption after dosing [1]: 6 to 8 h | AUC(0-t) at 24 h ([1]; inhaled or intranasal, 0.5 mg/kg): 1600 ± 400 ng·h/mL | bioavailability ([1]; inhaled or intranasal, 0.5 mg/kg, Bioavailability (absolute lung bioavailability versus i.v.)): ~64% | concentration at 2 h [1, 4]: 40 ± 30 ng/mL | concentration at 3.5 h [1, 4]: 90 ± 60 ng/mL | concentration at 5 h [1, 4]: 80 ± 60 ng/mL | concentration at 12 h [1, 4]: 70 ± 40 ng/mL | AUC(0-t) at 24 h ([1]; iv, 0.5 mg/kg): 5060 ± 1040 ng·h/mL | Plasma concentration (5-LO Inhibitor Levels) ([1]; iv, 0.5 mg/kg, 0 min): 0 µg/mL | Plasma concentration (5-LO Inhibitor Levels) ([1]; iv, 0.5 mg/kg, 0.25 h): 0.59 ± 0.05 µg/mL | Plasma concentration (5-LO Inhibitor Levels) ([1]; iv, 0.5 mg/kg, 12 h): 0.18 ± 0.06 µg/mL | concentration at 0.08 h [1, 5]: 630 ± 60 ng/mL | concentration at 0.25 h [1, 5]: ~600 ng/mL | concentration at 0.5 h [1, 5]: 600 ± 40 ng/mL | concentration at 1 h [1, 5]: 520 ± 40 ng/mL | concentration at 2 h [1, 5]: 480 ± 50 ng/mL | concentration at 4 h [1, 5]: 370 ± 60 ng/mL | concentration at 6 h [1, 5]: 300 ± 50 ng/mL | concentration at 8 h [1, 5]: 230 ± 50 ng/mL | concentration at 12 h [1, 5]: ~200 ng/mL | concentration at 24 h [1, 5]: 70 ± 20 ng/mL | Cmax [2, 6]: 150 ± 30 ng/mL | Tmax [2, 6]: 10.4 ± 9.23 h | Plasma concentration (5-LO Inhibitor Levels) ([2]; in vivo, inhaled or intranasal, 0.5 mg/kg, 1 h): 0.03 ± 0.02 µg/mL | concentration at 0.5 h [2, 7]: 10 ± 10 ng/mL | concentration at 1 h [2, 7]: 30 ng/mL | concentration at 7 h [2, 7]: 120 ± 70 ng/mL | concentration at 9 h [2, 7]: 90 ± 50 ng/mL | concentration at 24 h [2, 7]: 50 ± 60 ng/mL | concentration at 12 h ([2]; in vivo, inhaled or intranasal, 0.5 mg/kg, drug levels maintained): ≥ 70 ng/mL | Dispersion Quality (measured after 24 Hours) ([3]; Table 2b, 5-LO inhibitor #1 formulations in HFA-134a): Poor
SMILES: CC(C#Cc1ccc(Cc2ccc(F)cc2)s1)N(O)C(N)=O (stereo not drawn) [5-LO inhibitor #1, N-[3-[5-(4-fluorophenylmethyl)-2-thienyl]-1-methyl-2-propynyl]-N-hydroxyurea]
onset and absorption from the lungs (in words) ([2]; inhalation formulation): fast onset of drug absorption; also recorded: rapid onset and prolonged absorption of drug from the lungs

SMILES: CCNC(=O)[C@@H]1CCCN1C(=O)[C@H](CCCNC(=N)N)NC(=O)[C@H](CC(C)C)NC(=O)[C@@H](CC(C)C)NC(=O)[C@H](Cc1ccc(O)cc1)NC(=O)[C@H](CO)NC(=O)[C@H](Cc1c[nH]c2ccccc12)NC(=O)[C@H](Cc1c[nH]cn1)NC(=O)[C@@H]1CCC(=O)N1 [Leuprolide Acetate, leuprolide acetate, reference compound]
Dispersion Quality (measured after 24 Hours) ([3]; Table 2a, leuprolide acetate formulations (or excipients alone) in HFA-134a): Poor
